Measured values as given in ChEMBL document CHEMBL1201861, “Genomics of Drug Sensitity in Cancer screening data, Wellcome Trust Sanger Institute”.

Key:
Assay in all cases: cells
[1] = system: COR-L105; format: functional, cell-based; settings: Homo sapiens;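 also: cell growth inhibition determined with a viability assay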
Description: SANGER: Inhibition of human COR-L105 cell growth in a cell viability assay.

[2] = system: DBTRG-05MG; format: functional, cell-based; settings: Homo sapiens;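 also: cell viability assay measuring growth inhibition of human DBTRG-05MG cells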
Description: SANGER: Inhibition of human DBTRG-05MG cell growth in a cell viability assay.

[3] = system: HCC1419; format: functional, cell-based; settings: Homo sapiens;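 also: growth inhibition of human HCC1419 cells, read out as cell viability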
Description: SANGER: Inhibition of human HCC1419 cell growth in a cell viability assay.

[4] = system: HMV-2 cell line; format: functional, cell-based; settings: Homo sapiens;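 also: growth inhibition of HMV-II cells, read out with a cell viability assay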
Description: SANGER: Inhibition of human HMV-II cell growth in a cell viability assay.

[5] = system: HPAF-II; format: functional, cell-based; settings: Homo sapiens;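 also: growth inhibition of HPAF-II cells, read out with a cell viability assay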
Description: SANGER: Inhibition of human HPAF-II cell growth in a cell viability assay.

[6] = system: HT-1376; format: functional, cell-based; settings: Homo sapiens
Description: SANGER: Inhibition of human HT-1376 cell growth in a cell viability assay.

[7] = system: HT-3; format: functional, cell-based; settings: Homo sapiens;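 also: growth inhibition measured with a cell viability readout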
Description: SANGER: Inhibition of human HT-3 cell growth in a cell viability assay.

[8] = system: Hs-578T; format: functional, cell-based; settings: Homo sapiens
Description: SANGER: Inhibition of human Hs-578-T cell growth in a cell viability assay.

[9] = system: Huh-7; format: functional, cell-based; settings: Homo sapiens;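 also: HuH-7 cell growth inhibition, read out with a cell viability assay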
Description: SANGER: Inhibition of human HuH-7 cell growth in a cell viability assay.

[10] = system: IGROV-1; format: functional, cell-based; settings: Homo sapiens;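 also: reduction of IGROV-1 cell growth, read out with a viability assay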
Description: SANGER: Inhibition of human IGROV-1 cell growth in a cell viability assay.

[11] = system: JEG-3; format: functional, cell-based; settings: Homo sapiens;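 also: growth inhibition of human JEG-3 cells, read out with a cell viability assay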
Description: SANGER: Inhibition of human JEG-3 cell growth in a cell viability assay.

[12] = system: KYSE-270; format: functional, cell-based; settings: Homo sapiens;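 also: cell growth inhibition measured with a viability assay in the human KYSE-270 line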
Description: SANGER: Inhibition of human KYSE-270 cell growth in a cell viability assay.

[13] = system: KYSE-450; format: functional, cell-based; settings: Homo sapiens;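 also: cell growth inhibition measured by a viability assay in human KYSE-450 cells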
Description: SANGER: Inhibition of human KYSE-450 cell growth in a cell viability assay.

[14] = system: LCLC-103H cell line; format: functional, cell-based; settings: Homo sapiens
Description: SANGER: Inhibition of human LCLC-103H cell growth in a cell viability assay.

[15] = system: LK-2; format: functional, cell-based; settings: Homo sapiens;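 also: growth inhibition of LK-2 cells, read out with a viability assay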
Description: SANGER: Inhibition of human LK-2 cell growth in a cell viability assay.

[16] = system: MDA-MB-175-VII; format: functional, cell-based; settings: Homo sapiens
[17] = system: MG-63; format: functional, cell-based; settings: Homo sapiens;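 also: growth inhibition of human MG-63 cells, read out with a cell viability assay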
Description: SANGER: Inhibition of human MG-63 cell growth in a cell viability assay.

[18] = system: MHH-ES-1; format: functional, cell-based; settings: Homo sapiens;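 also: cell growth inhibition measured by a cell viability assay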
Description: SANGER: Inhibition of human MHH-ES-1 cell growth in a cell viability assay.

[19] = system: MKN-45; format: functional, cell-based; settings: Homo sapiens;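 also: growth inhibition of human MKN-45 cells, measured with a cell viability assay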
Description: SANGER: Inhibition of human MKN45 cell growth in a cell viability assay.

[20] = system: NB14; format: functional, cell-based; settings: Homo sapiens;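 also: growth inhibition of NB14 cells measured with a cell viability assay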
Description: SANGER: Inhibition of human NB14 cell growth in a cell viability assay.

[21] = system: NCI-H2009; format: functional, cell-based; settings: Homo sapiens;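 also: cell viability assay measuring inhibition of NCI-H2009 cell growth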
Description: SANGER: Inhibition of human NCI-H2009 cell growth in a cell viability assay.

[22] = system: NCI-H2052; format: functional, cell-based; settings: Homo sapiens;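 also: growth inhibition of NCI-H2052 cells, read out with a cell viability assay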
Description: SANGER: Inhibition of human NCI-H2052 cell growth in a cell viability assay.

[23] = system: NCI-H2170; format: functional, cell-based; settings: Homo sapiens;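 also: cell viability assay measuring growth inhibition of human NCI-H2170 cancer cells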
Description: SANGER: Inhibition of human NCI-H2170 cell growth in a cell viability assay.

[24] = system: OVCAR-8; format: functional, cell-based; settings: Homo sapiens;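 also: growth inhibition of human OVCAR-8 cells, read out by a cell viability assay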
Description: SANGER: Inhibition of human OVCAR-8 cell growth in a cell viability assay.

[25] = system: RD; format: functional, cell-based; settings: Homo sapiens
Description: SANGER: Inhibition of human RD cell growth in a cell viability assay.

[26] = system: RPMI-2650; format: functional, cell-based; settings: Homo sapiens
Description: SANGER: Inhibition of human RPMI-2650 cell growth in a cell viability assay.

[27] = system: SAS; format: functional, cell-based; settings: Homo sapiens;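 also: growth inhibition of SAS cells, read out with a cell viability assay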
Description: SANGER: Inhibition of human SAS cell growth in a cell viability assay.

[28] = system: SBC-5; format: functional, cell-based; settings: Homo sapiens;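 also: cell viability assay read-out, IC50 is the concentration that inhibits growth of the cells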
Description: SANGER: Inhibition of human SBC-5 cell growth in a cell viability assay.

[29] = system: SK-MEL-24; format: functional, cell-based; settings: Homo sapiens;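 also: growth inhibition read out by a cell viability assay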
Description: SANGER: Inhibition of human SK-MEL-24 cell growth in a cell viability assay.

[30] = system: SK-MEL3; format: functional, cell-based, SK-MEL-3; settings: Homo sapiens;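 also: growth inhibition of human SK-MEL-3 cells, read out with a cell viability assay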
Description: SANGER: Inhibition of human SK-MEL-3 cell growth in a cell viability assay.

[31] = system: SNU-387; format: functional, cell-based; settings: Homo sapiens
Description: SANGER: Inhibition of human SNU-387 cell growth in a cell viability assay.

[32] = system: SNU-449; format: functional, cell-based; settings: Homo sapiens
Description: SANGER: Inhibition of human SNU-449 cell growth in a cell viability assay.

[33] = system: SW1783; format: functional, cell-based; settings: Homo sapiens;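 also: cell growth inhibition measured with a viability assay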
Description: SANGER: Inhibition of human SW1783 cell growth in a cell viability assay.

[34] = system: SW-620; format: functional, cell-based; settings: Homo sapiens;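 also: growth inhibition of human SW-620 cells, measured by a cell viability assay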
Description: SANGER: Inhibition of human SW620 cell growth in a cell viability assay.

[35] = system: SW626; format: functional, cell-based; settings: Homo sapiens;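 also: growth inhibition of SW626 cells, measured with a cell viability assay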
Description: SANGER: Inhibition of human SW626 cell growth in a cell viability assay.

[36] = system: SW756; format: functional, cell-based; settings: Homo sapiens;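 also: growth inhibition of human SW756 cells, read out with a cell viability assay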
Description: SANGER: Inhibition of human SW756 cell growth in a cell viability assay.

[37] = system: TCC-SUP; format: functional, cell-based; settings: Homo sapiens;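 also: growth inhibition of TCC-SUP cells, read out with a cell viability assay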
Description: SANGER: Inhibition of human TCCSUP cell growth in a cell viability assay.

[38] = system: 23132-87; format: functional, cell-based; settings: Homo sapiens
Description: SANGER: Inhibition of human 23132-87 cell growth in a cell viability assay.

[39] = system: A-431; format: functional, cell-based; settings: Homo sapiens;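 also: growth inhibition of A-431 cells, determined with a cell viability read-out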
Description: SANGER: Inhibition of human A431 cell growth in a cell viability assay.

[40] = system: ASPC1; format: functional, cell-based; settings: Homo sapiens;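 also: growth inhibition of AsPC-1 cells, read out with a cell viability assay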
Description: SANGER: Inhibition of human AsPC-1 cell growth in a cell viability assay.

[41] = system: CAL-120; format: functional, cell-based; settings: Homo sapiens;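 also: cell growth inhibition, read out as cell viability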
Description: SANGER: Inhibition of human CAL-120 cell growth in a cell viability assay.

[42] = system: CAL-12T; format: functional, cell-based, Homo sapiens; settings: Homo sapiens, CAL-12T;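 also: growth inhibition of human CAL-12T cells, read out with a cell viability assay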
Description: SANGER: Inhibition of human CAL-12T cell growth in a cell viability assay.

[43] = system: CAL-72; format: functional, cell-based; settings: Homo sapiens;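 also: cell viability assay measuring inhibition of proliferation in the CAL-72 cell line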
Description: SANGER: Inhibition of human CAL-72 cell growth in a cell viability assay.

[44] = system: CAL-85-1; format: functional, cell-based; settings: Homo sapiens;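 also: growth inhibition of human CAL-85-1 cells, read out with a cell viability assay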
Description: SANGER: Inhibition of human CAL-85-1 cell growth in a cell viability assay.

[45] = system: TGW; format: functional, cell-based; settings: Homo sapiens;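 also: growth inhibition of human TGW cells, read out with a cell viability assay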
Description: SANGER: Inhibition of human TGW cell growth in a cell viability assay.

[46] = system: U2OS; format: functional, cell-based, U-2-OS; settings: Homo sapiens;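 also: growth inhibition of human U-2-OS cells, determined with a cell viability assay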
Description: SANGER: Inhibition of human U-2-OS cell growth in a cell viability assay.

[47] = system: UO-31; format: functional, cell-based; settings: Homo sapiens;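 also: cell viability assay measuring inhibition of cell growth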
Description: SANGER: Inhibition of human U031 cell growth in a cell viability assay.

[48] = system: VMRC-RCZ; format: functional, cell-based; settings: Homo sapiens;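 also: growth inhibition measured with a cell viability assay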
Description: SANGER: Inhibition of human VMRC-RCZ cell growth in a cell viability assay.

[49] = system: CAMA-1; format: functional, cell-based; settings: Homo sapiens;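 also: growth inhibition of CAMA-1 cells, read out with a cell viability assay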
Description: SANGER: Inhibition of human CAMA-1 cell growth in a cell viability assay.

[50] = system: CHL-1; format: functional, cell-based; settings: Homo sapiens;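 also: cell growth inhibition, read out with a cell viability assay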
Description: SANGER: Inhibition of human CHL-1 cell growth in a cell viability assay.

Work on `CCCS(=O)(=O)Nc1ccc(F)c(C(=O)c2c[nH]c3ncc(Cl)cc23)c1F` [PLX-4720] yielded an IC50 [1] greater than 10000 nM, an IC50 [2] of 4.53 µM and an IC50 [3] greater than 10000 nM. For the same compound, the IC50 [4] was greater than 10000 nM, the IC50 [5] was greater than 10000 nM and the IC50 [6] was greater than 10000 nM. The IC50 [7] was greater than 10000 nM, the IC50 [8] was greater than 10000 nM and the IC50 [9] was greater than 10000 nM. The IC50 [10] was greater than 10 µM, the IC50 [11] was greater than 10000 nM and the IC50 [12] was greater than 10000 nM. It also gave an IC50 [13] greater than 10000 nM, an IC50 [14] greater than 10000 nM and an IC50 [15] greater than 10000 nM. It also gave an IC50 [16] greater than 10 µM, an IC50 [17] greater than 10000 nM and an IC50 [18] greater than 10000 nM. The IC50 [19] was greater than 10000 nM, the IC50 [20] was greater than 10000 nM and the IC50 [21] was greater than 10000 nM. It also gave an IC50 [22] greater than 10000 nM, an IC50 [23] greater than 10000 nM and an IC50 [24] greater than 10000 nM. For the same compound, the IC50 [25] was greater than 10000 nM, the IC50 [26] was greater than 10000 nM and the IC50 [27] was greater than 10000 nM. It also gave an IC50 [28] greater than 10000 nM, an IC50 [29] greater than 10000 nM and an IC50 [30] of 516 nM. It also gave an IC50 [31] greater than 10000 nM, an IC50 [32] greater than 10 µM and an IC50 [33] greater than 10000 nM. The IC50 [34] was greater than 10000 nM, the IC50 [35] was greater than 10000 nM and the IC50 [36] was greater than 10000 nM. The IC50 [37] was greater than 10000 nM, the IC50 [38] was greater than 10000 nM and the IC50 [39] was greater than 10 µM. It also gave an IC50 [40] greater than 10000 nM, an IC50 [41] greater than 10000 nM and an IC50 [42] greater than 10000 nM. The IC50 [43] was 6.45 µM, the IC50 [44] was greater than 10 µM and the IC50 [45] was greater than 10 µM. For the same compound, the IC50 [46] was greater than 10000 nM, the IC50 [47] was greater than 10000 nM and the IC50 [48] was greater than 10000 nM. It also gave an IC50 [49] greater than 10000 nM and an IC50 [50] of 5.98 µM.

`C[C@]1(c2nc3c(C(N)=O)cccc3[nH]2)CCCN1` [VELIPARIB] was tested, and the IC50 [1] was greater than 5000 nM, the IC50 [2] was greater than 5 µM and the IC50 [3] was greater than 5000 nM. For the same compound, the IC50 [4] was greater than 5000 nM, the IC50 [5] was greater than 5000 nM and the IC50 [6] was greater than 5000 nM. For the same compound, the IC50 [7] was greater than 5000 nM, the IC50 [8] was greater than 5000 nM and the IC50 [9] was greater than 5000 nM. It also gave an IC50 [10] greater than 5 µM, an IC50 [11] greater than 5000 nM and an IC50 [12] greater than 5000 nM. The IC50 [13] was greater than 5000 nM, the IC50 [14] was greater than 5000 nM and the IC50 [15] was greater than 5000 nM. The IC50 [16] was greater than 5 µM, the IC50 [17] was greater than 5000 nM and the IC50 [18] was greater than 5000 nM. For the same compound, the IC50 [19] was greater than 5000 nM, the IC50 [20] was greater than 5000 nM and the IC50 [21] was greater than 5000 nM. It also gave an IC50 [22] greater than 5000 nM, an IC50 [23] greater than 5000 nM and an IC50 [24] greater than 5000 nM. The IC50 [25] was greater than 5000 nM, the IC50 [26] was greater than 5000 nM and the IC50 [27] was greater than 5000 nM. It also gave an IC50 [28] greater than 5000 nM, an IC50 [29] greater than 5000 nM and an IC50 [30] greater than 5000 nM. For the same compound, the IC50 [31] was greater than 5000 nM, the IC50 [32] was greater than 5 µM and the IC50 [33] was greater than 5000 nM. The IC50 [34] was greater than 5000 nM, the IC50 [35] was greater than 5000 nM and the IC50 [36] was greater than 5000 nM. For the same compound, the IC50 [37] was greater than 5000 nM, the IC50 [38] was greater than 5000 nM and the IC50 [39] was greater than 5 µM. For the same compound, the IC50 [40] was greater than 5000 nM, the IC50 [41] was greater than 5000 nM and the IC50 [42] was greater than 5000 nM. It also gave an IC50 [43] greater than 5 µM, an IC50 [44] greater than 5 µM and an IC50 [46] greater than 5000 nM. For the same compound, the IC50 [47] was greater than 5000 nM, the IC50 [48] was greater than 5000 nM and the IC50 [49] was greater than 5000 nM. It also gave an IC50 [50] greater than 5 µM.

Work on `CC[C@]1(O)C[C@@H]2CN(CCc3c([nH]c4ccccc34)[C@@](C(=O)OC)(c3cc4c(cc3OC)N(C)[C@H]3[C@@](O)(C(=O)OC)[C@H](OC(C)=O)[C@]5(CC)C=CCN6CC[C@]43[C@@H]65)C2)C1` [VINBLASTINE] yielded an IC50 [1] of 65.7 nM, an IC50 [2] greater than 0.1 µM and an IC50 [3] of 57.2 nM. The IC50 [4] was 3.9 nM, the IC50 [5] was 40 nM and the IC50 [6] was 60.4 nM. For the same compound, the IC50 [7] was 37.1 nM, the IC50 [8] was 17.3 nM and the IC50 [9] was 87.7 nM. The IC50 [10] was greater than 0.1 µM, the IC50 [11] was 12.5 nM and the IC50 [12] was 9.63 nM. For the same compound, the IC50 [13] was 9.65 nM, the IC50 [14] was 1.5 nM and the IC50 [15] was 7.5 nM. For the same compound, the IC50 [16] was greater than 0.1 µM, the IC50 [17] was 14.2 nM and the IC50 [18] was 5.13 nM. For the same compound, the IC50 [19] was 48.4 nM, the IC50 [20] was 4.95 nM and the IC50 [21] was 53.4 nM. For the same compound, the IC50 [22] was 24.6 nM, the IC50 [23] was 33.4 nM and the IC50 [24] was 6.55 nM. For the same compound, the IC50 [25] was 4.17 nM, the IC50 [26] was 26.6 nM and the IC50 [27] was 28.1 nM. The IC50 [28] was 7.47 nM, the IC50 [29] was 31.5 nM and the IC50 [30] was greater than 100 nM. For the same compound, the IC50 [31] was 11.4 nM, the IC50 [32] was greater than 0.1 µM and the IC50 [33] was 85.5 nM. For the same compound, the IC50 [34] was 8.84 nM, the IC50 [35] was 23.2 nM and the IC50 [36] was 14.7 nM. It also gave an IC50 [37] of 23.6 nM, an IC50 [38] of 20.6 nM and an IC50 [39] greater than 0.1 µM. It also gave an IC50 [40] of 13.2 nM, an IC50 [41] of 87.3 nM and an IC50 [42] of 56 nM. For the same compound, the IC50 [43] was greater than 0.1 µM, the IC50 [44] was greater than 0.1 µM and the IC50 [46] was 25.7 nM. It also gave an IC50 [47] of 13.9 nM, an IC50 [48] of 19.3 nM and an IC50 [49] of 32 nM. For the same compound, the IC50 [50] was 0.012 µM.
